Test results as given in patent EP1304107A2, “Use of oxazolidinines derivatives for treating psoriasis” (PHARMACIA & UPJOHN COMPANY, priority 1997, dated 1999).

Columns and labels:
arthritis = assay: Case report: patient with arthritis treated for pneumonia (EXAMPLE B); type: in vivo, human; conditions: person (Subject No 1912); 625 mg twice daily intravenously for 3 days, then 8 days oral at the same dose; taking no medications at follow up
psoriasis = assay: Case report: treatment of a patient with chronic psoriasis (EXAMPLE A); type: in vivo, human; conditions: person
Experimental: They had chronic psoriatic lesions of both elbows, groin, left leg, right leg, and lower back. The lesions were treated in the past with coal tar and topical steroids but not UV light. They were allergic to the excipients in the steroidal topical preparations.
After six months it had returned to the pretreatment state.

[1] = after 625 mg twice daily for fourteen days

CC(=O)NC[C@H]1CN(c2ccc(N3CCOCC3)c(F)c2)C(=O)O1 [EXAMPLE 2, (S)-N-[[3-[3-Fluoro-4-(4-morpholinyl)phenyl]-2-oxo-5-oxazolidinyl]methyl]acetamide]
arthritis status stated by the patient at long term follow up (arthritis): arthritis was gone | improvement in their psoriasis (psoriasis; 625 mg twice daily for fourteen days (IV five days, then orally nine days), onset as soon as they started taking the medication): immediate improvement | clearing of the psoriasis (psoriasis; 625 mg twice daily for fourteen days, no other psoriasis treatment, from the time they took the medication): complete clearing | time until psoriasis gradually began to return (psoriasis; [1]): three | time until psoriasis had returned to the pretreatment state (psoriasis; [1]): six
